Columns and labels:
[1] = tested on: dog; details: Chronic toxicity, beagle, Oral, Feed, dose end: 104 week
[2] = tested on: rabbit; details: Prenatal developmental toxicity study, new zealand white, Oral, Gavage/Intubation, dose end: 18 GD
[3] = tested on: rat; details: Combined chronic toxicity/carcinogenicity, wistar, Oral, Feed, dose end: 104 week
[4] = tested on: rat; details: Combined chronic toxicity/carcinogenicity, fischer, Oral, Feed, dose end: 104 week
[5] = tested on: mouse; details: Combined chronic toxicity/carcinogenicity, b6c3f1, Oral, Feed, dose end: 105 week
[6] = tested on: rat; details: Subchronic oral toxicity in rodents, fischer, Feed, dose end: 13 week
[7] = tested on: rat; details: Subchronic oral toxicity in rodents, fischer, Gavage/Intubation, dose end: 13 week
[8] = tested on: mouse; details: Subchronic oral toxicity in rodents, b6c3f1, Gavage/Intubation, dose end: 13 week
[9] = tested on: mouse; details: Subchronic oral toxicity in rodents, b6c3f1, Feed, dose end: 13 week
[10] = group: cholinesterase, cholinesterase / cholinesterase / cholinesterase / plasma cholinesterase (che)
[11] = group: systemic, systemic / in life observation / food consumption / food consumption + systemic / in life observation / clinical signs / hindlimb strength…
[12] = group: cholinesterase, cholinesterase / cholinesterase / cholinesterase / cholinesterase (che)
[13] = group: developmental, developmental / developmental malformation / liver / discolored
[14] = group: maternal, systemic / in life observation / body weight / body weight + systemic / in life observation / body weight / body weight gain
[15] = group: systemic, systemic / hematology / erythrocyte (rbc) count differential / erythrocyte (rbc) + systemic / hematology / reticulocyte / reticulocyte + …
[16] = group: systemic, systemic / pathology microscopic / ovary / hyperplasia + systemic / in life observation / clinical signs / grip strength + systemic / organ …
[17] = group: systemic, systemic / pathology microscopic / adrenal gland / pigmentation
[18] = group: systemic, systemic / in life observation / body weight / body weight + systemic / in life observation / body weight / body weight gain + systemic / in…
[19] = group: systemic, systemic / pathology microscopic / adrenal gland / vacuolization cytoplasmic
[20] = group: systemic, systemic / hematology / hemoglobin (hgb) / hemoglobin (hgb) + systemic / in life observation / clinical signs / grip strength + systemic / …
[21] = group: systemic, systemic / pathology microscopic / adrenal gland / vacuolization cytoplasmic + systemic / pathology microscopic / ovary / hypertrophy
[22] = group: systemic, systemic / hematology / hemoglobin (hgb) / hemoglobin (hgb) + systemic / hematology / mean corpuscular hemoglobin concentration (mchc) / …

CNC(=O)Oc1cc(C)c(SC)c(C)c1 [Methiocarb]
LEL [1, 10]: 0.75 mg/kg/day
LOAEL [1, 10]: 0.75 mg/kg/day
NEL [1, 10]: < 0.75 mg/kg/day
NOAEL [1, 10]: < 0.75 mg/kg/day
LOAEL ([1]; group: systemic, systemic / in life observation / clinical signs / tremors): 12 mg/kg/day
LEL ([1]; group: systemic, systemic / in life observation / food consumption / food consumption): 3 mg/kg/day
NEL [1, 11]: 0.75 mg/kg/day
NOAEL [1, 11]: 3 mg/kg/day
LEL [2, 12]: 10 mg/kg/day
LOAEL [2, 12]: 10 mg/kg/day
NEL [2, 12]: 3 mg/kg/day
NOAEL [2, 12]: 3 mg/kg/day
LEL [2, 13]: 10 mg/kg/day
LOAEL [2, 13]: > 10 mg/kg/day
NEL [2, 13]: 3 mg/kg/day
NOAEL [2, 13]: ≥ 10 mg/kg/day
LEL [2, 14]: 10 mg/kg/day
LOAEL [2, 14]: 10 mg/kg/day
NEL [2, 14]: 3 mg/kg/day
NOAEL [2, 14]: 3 mg/kg/day
LEL [3, 10]: 30 mg/kg/day
LOAEL [3, 10]: > 30 mg/kg/day
NEL [3, 10]: 10 mg/kg/day
NOAEL [3, 10]: ≥ 30 mg/kg/day
LOAEL ([3]; group: systemic, systemic / hematology / erythrocyte (rbc) count differential / erythrocyte (rbc)): 10 mg/kg/day
LEL ([3]; group: systemic, systemic / hematology / erythrocyte (rbc) count differential / erythrocyte (rbc) + systemic / hematology / reticulocyte / reticulocyte): 10 mg/kg/day
NEL [3, 15]: 3.4 mg/kg/day
NOAEL [3, 15]: 3.4 mg/kg/day

Cc1ccc(OP(=O)(Oc2ccc(C)cc2)Oc2ccc(C)cc2)cc1.Cc1cccc(OP(=O)(Oc2cccc(C)c2)Oc2cccc(C)c2)c1.Cc1ccccc1OP(=O)(Oc1ccccc1C)Oc1ccccc1C [Tricresyl phosphate]
LEL [4, 12]: 4 mg/kg/day
LOAEL [4, 12]: > 30 mg/kg/day
NEL [4, 12]: < 4 mg/kg/day
NOAEL [4, 12]: ≥ 30 mg/kg/day
LEL ([4]; group: systemic, systemic / pathology microscopic / ovary / hyperplasia): 7 mg/kg/day
LOAEL [4, 16]: > 30 mg/kg/day
NEL [4, 16]: 4 mg/kg/day
NOAEL [4, 16]: ≥ 30 mg/kg/day
LEL [5, 12]: 7 mg/kg/day
LOAEL [5, 12]: 7 mg/kg/day
NEL [5, 12]: < 7 mg/kg/day
NOAEL [5, 12]: < 7 mg/kg/day
LEL [5, 17]: 8 mg/kg/day
LOAEL [5, 17]: 8 mg/kg/day
NEL [5, 17]: < 8 mg/kg/day
NOAEL [5, 17]: < 8 mg/kg/day
LEL [6, 12]: 55 mg/kg/day
LOAEL [6, 12]: > 750 mg/kg/day
NEL [6, 12]: < 55 mg/kg/day
NOAEL [6, 12]: ≥ 750 mg/kg/day
LOAEL [6, 18]: > 750 mg/kg/day
NOAEL [6, 18]: ≥ 750 mg/kg/day
LEL [6, 19]: 55 mg/kg/day
NEL [6, 19]: < 55 mg/kg/day
LEL [7, 12]: 50 mg/kg/day
LOAEL [7, 12]: > 800 mg/kg/day
NEL [7, 12]: < 50 mg/kg/day
NOAEL [7, 12]: ≥ 800 mg/kg/day
LOAEL [7, 20]: > 800 mg/kg/day
NOAEL [7, 20]: ≥ 800 mg/kg/day
LEL [7, 21]: 50 mg/kg/day
NEL [7, 21]: < 50 mg/kg/day
LEL [8, 12]: 50 mg/kg/day
LOAEL [8, 12]: > 800 mg/kg/day
NEL [8, 12]: < 50 mg/kg/day
NOAEL [8, 12]: ≥ 800 mg/kg/day
LOAEL [8, 18]: > 800 mg/kg/day
NOAEL [8, 18]: ≥ 800 mg/kg/day
LEL [8, 21]: 50 mg/kg/day
NEL [8, 21]: < 50 mg/kg/day
LEL [9, 12]: 45 mg/kg/day
LOAEL [9, 12]: > 900 mg/kg/day
NEL [9, 12]: < 45 mg/kg/day
NOAEL [9, 12]: ≥ 900 mg/kg/day
LOAEL [9, 22]: > 900 mg/kg/day
NOAEL [9, 22]: ≥ 900 mg/kg/day
LEL [9, 19]: 65 mg/kg/day
NEL [9, 19]: < 65 mg/kg/day

Source: EPA's ToxRefDB 2
